Assay [1] relates to Human pancreatic ductal epithelial cells. In words: Glucose stimulated insulin secretion assay (ELISA). The format is cell-based. (An ELISA detects its analyte on a solid surface through an enzyme-linked reagent.)
Procedure: 5×10^5 cells were seeded in 12-well plates and allowed to adhere for 24 hours. […] Next, cells were cultured in 28 mM (High) glucose Krebs Buffer solution and incubated for 1 hour to obtain the glucose stimulated insulin secretion. Supernatant was collected and Ultrasensitive Insulin ELISA (Mercodia) was used to determine the concentration of insulin according to manufacturer's instructions. Fold change of insulin secreted by cells were calculated by adjusting to cells stimulated with EZH2 inhibitors for insulin concentrations compared to control.
For assay [2] the test system is unchanged. In words: qRT-PCR after 2- and 7-day EZH2 inhibitor stimulation of human pancreatic ductal epithelial cells. The format is cell-based. Conditions: GSK-126 10 μM, Triptolide 20 nM. On the technique in general: Real-time PCR tracks product formation cycle by cycle.
Procedure: Human pancreatic ductal epithelial cells were purchased from AddexBio and cultured according to the recommended protocols. Cells were cultured in complete Keratinocyte Serum-Free Media (supplemented with human recombinant EGF, Bovine Pituitary Extract and Antibiotic-Antimycotic [Gibco]. All cell cultures were grown and maintained in a 37° C., 5% C02 environment using a tissue culture incubator. Once cells reached 70-80% confluency, passaging was performed using 0.05% Trypsin EDTA (Sigma). […] Vehicle control was DMSO. Cells were treated over 2 main timepoints, with harvests occurring following 2, and 7 days. For the 2-day time point, cells were seeded and left to adhere in plates for 24 hours. Treatment was initiated with the first dose made up in complete K-SFM. The second dose was delivered 24 hours later following a media change. For the longer period of 7 days, cells were initially seeded in 10 cm plates, with doses delivered on alternate days following the initial period of 24 hours. […] Ct values of experimental genes were normalized to housekeeping gene [MUT]. Fold change of mRNA abundance was calculated by normalizing drug treated values to vehicular controls. […] RNA was isolated using the RNeasy Kit according to the manufacturer's directions. Following measurement of RNA concentration using a QIAxpert System, 1 μg of RNA was used for cDNA synthesis by a high-capacity cDNA Reverse Transcription Kit (Applied Biosystems). The resulting cDNA reaction mix was diluted 1:6 to make up the final template cDNA used subsequently. […] Ct values of experimental genes were normalized to housekeeping gene [MUT]. Fold change of mRNA abundance was calculated by normalizing drug treated values to vehicular controls.
Assay [3] concerns human exocrine (acinar and ductal) cells. Nature of the assay: qRT-PCR gene expression in human exocrine (acinar and ductal) cells from a non-diabetic donor. The settings on record: 48 hours: GSK126 10 μM, CPI-1205 5 μM, ursolic acid 5 μM, GSK343 5 μM, EPZ-6438 5 μM. It counts as cell-based. On the procedure:
(§1) Exocrine cells from a non-diabetic human and a marmoset were cultured and assayed in Miami/CMRL medium. The human exocrine cells were sourced from the Islet Transplant Unit of St Vincent's Institute for Medical Research. The marmoset exocrine cells were sourced from the Australian Regenerative Medicine Institute (ARMI), Monash University. Miami media is based on CMRL 1066 media (Connaught Medical Research Lab) supplemented with: Insulin, Transferrin & Selenium (ITS), human serum, Vitamin E, sodium pyruvate, zinc and HEPES. Pharmacological inhibition of EZH2 and gene expression analysis were performed as described in Example 1.

A further assay addresses T1, EZH2 (Homo sapiens, UniProt Q15910).
T1 construct: Flag
The settings on record: assay of methylation activity as described in the cited paper for each compound; cited from earlier work.

The subject of assay [4] is marmoset exocrine (acinar and ductal) cells. Nature of the assay: qRT-PCR gene expression in marmoset exocrine (acinar and ductal) cells. The format is cell-based. The settings on record: 48 hours: GSK126 10 μM, ursolic acid 5 μM. As for the experimental part:
as §1

In assay [5] the test system is Human immortalised ductal cell line. Nature of the assay: qRT-PCR gene expression in human immortalised ductal cell line. The settings on record: ursolic acid 1, 2.5 or 5 μM; GSK126 5, 10 or 20 μM. It counts as cell-based. As for the experimental part: Human immortalised ductal cell line (Catalog #: T0018001, Addexbio) was cultured and assayed in Keratinocyte SFM (serum-free medium) (Catalog number 17005042, ThermoFisher Scientific, USA). Pharmacological inhibition of EZH2 and gene expression analysis were performed as described in Example 1.

The subject of assay [6] is H3K27me3 or H3K9/14ac content at the promoters of INS-IGF2, NGN3 and PDX1 in human pancreatic ductal epithelial cells. In words: Quantitative PCR chromatin immunoprecipitation (q-PCR ChIP) after 2- and 7-day stimulation. It counts as cell-based. Conditions: 7 days (FIG. 12c). As for the experimental part: Approximately 5×10^6 cells were fixed in 1% formaldehyde for 10 minutes, with a further 10-minute incubation in 0.125M glycine to quench the cross-linking reaction. The fixed cell pellet was lysed following resuspension and homogenization in sodium dodecyl (lauryl) sulphate (SOS) lysis buffer (1% SOS, 10 mM EDTA, 50 mM Tris-HCl pH 8.1) with a protease inhibitor cocktail (Roche Diagnostics GmBH, Mannheim, Germany) included. Samples were incubated on ice for 5 minutes following which sonication was performed to shear chromatin between 200-600 bp. Sonicated chromatin was resuspended in ChIP Dilution Buffer (0.01% SOS, 1.1% Triton X-100, 1.2 mM EDTA, 16.7 mM Tris-HCl pH 8.0 and 167 mM NaCl). 20 μl of DynabeadsR Protein A (Invitrogen, Carlsbad, CA, USA) was added to each sample and pre-cleared. Overnight incubation at 4° C. with H3K27me3 or H3K9/14ac antibody was used for immunoprecipitation of chromatin, as previously described. Immunoprecipitates were collected by magnetic isolation and washed sequentially with low salt and high salt buffers. Immunoprecipitated DNA was then eluted from solution with 0.1 M NaHCO3 containing 1% SIDS. Protein-DNA cross-links were reversed by incubation of samples in Proteinase K (Sigma, St. Louis, MO, USA) for 2 hours at 62° C. DNA was purified using a Qiagen MinElute column (Qiagen Inc., Valencia, CA, USA). H3K27me3 or H3K9/14ac content at the promoters of the INS-IGF2, NGN3 and PDX1 genes were assessed by qPCR using primers designed from the integrative ENCODE resource.

T1 sequence (Q15910 whole entry): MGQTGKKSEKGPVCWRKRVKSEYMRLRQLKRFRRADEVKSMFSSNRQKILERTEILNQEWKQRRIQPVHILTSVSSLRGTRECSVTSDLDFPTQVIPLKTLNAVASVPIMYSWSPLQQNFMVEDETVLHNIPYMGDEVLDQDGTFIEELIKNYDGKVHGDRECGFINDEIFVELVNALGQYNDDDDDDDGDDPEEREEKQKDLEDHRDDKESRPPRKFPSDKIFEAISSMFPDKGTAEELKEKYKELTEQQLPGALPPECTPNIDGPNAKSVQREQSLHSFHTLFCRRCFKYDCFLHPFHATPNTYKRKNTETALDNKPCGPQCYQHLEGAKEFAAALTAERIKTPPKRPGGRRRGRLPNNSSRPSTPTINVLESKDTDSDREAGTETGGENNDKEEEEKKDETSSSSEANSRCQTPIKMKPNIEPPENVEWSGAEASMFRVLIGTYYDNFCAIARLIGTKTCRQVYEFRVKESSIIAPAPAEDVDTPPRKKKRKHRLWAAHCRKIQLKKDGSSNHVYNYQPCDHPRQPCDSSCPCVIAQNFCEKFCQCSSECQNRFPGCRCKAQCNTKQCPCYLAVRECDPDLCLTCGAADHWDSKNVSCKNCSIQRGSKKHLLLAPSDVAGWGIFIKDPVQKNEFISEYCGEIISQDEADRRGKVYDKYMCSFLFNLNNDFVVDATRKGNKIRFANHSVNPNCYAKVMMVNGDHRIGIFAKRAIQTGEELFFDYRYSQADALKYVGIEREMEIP
T1 sequence (O75530 whole entry partner): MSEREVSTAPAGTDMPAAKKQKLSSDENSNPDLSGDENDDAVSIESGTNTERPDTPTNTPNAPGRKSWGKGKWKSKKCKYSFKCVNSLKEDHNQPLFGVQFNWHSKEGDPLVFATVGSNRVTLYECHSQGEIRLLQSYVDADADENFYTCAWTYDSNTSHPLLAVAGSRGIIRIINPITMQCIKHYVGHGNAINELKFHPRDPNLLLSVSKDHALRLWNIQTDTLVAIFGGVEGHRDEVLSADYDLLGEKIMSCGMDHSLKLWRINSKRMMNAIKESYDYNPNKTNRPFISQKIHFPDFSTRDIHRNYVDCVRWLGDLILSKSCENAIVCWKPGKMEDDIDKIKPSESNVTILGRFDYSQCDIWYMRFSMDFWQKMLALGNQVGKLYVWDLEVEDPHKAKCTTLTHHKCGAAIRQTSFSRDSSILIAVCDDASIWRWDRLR
T1 sequence (Q15022 whole entry partner): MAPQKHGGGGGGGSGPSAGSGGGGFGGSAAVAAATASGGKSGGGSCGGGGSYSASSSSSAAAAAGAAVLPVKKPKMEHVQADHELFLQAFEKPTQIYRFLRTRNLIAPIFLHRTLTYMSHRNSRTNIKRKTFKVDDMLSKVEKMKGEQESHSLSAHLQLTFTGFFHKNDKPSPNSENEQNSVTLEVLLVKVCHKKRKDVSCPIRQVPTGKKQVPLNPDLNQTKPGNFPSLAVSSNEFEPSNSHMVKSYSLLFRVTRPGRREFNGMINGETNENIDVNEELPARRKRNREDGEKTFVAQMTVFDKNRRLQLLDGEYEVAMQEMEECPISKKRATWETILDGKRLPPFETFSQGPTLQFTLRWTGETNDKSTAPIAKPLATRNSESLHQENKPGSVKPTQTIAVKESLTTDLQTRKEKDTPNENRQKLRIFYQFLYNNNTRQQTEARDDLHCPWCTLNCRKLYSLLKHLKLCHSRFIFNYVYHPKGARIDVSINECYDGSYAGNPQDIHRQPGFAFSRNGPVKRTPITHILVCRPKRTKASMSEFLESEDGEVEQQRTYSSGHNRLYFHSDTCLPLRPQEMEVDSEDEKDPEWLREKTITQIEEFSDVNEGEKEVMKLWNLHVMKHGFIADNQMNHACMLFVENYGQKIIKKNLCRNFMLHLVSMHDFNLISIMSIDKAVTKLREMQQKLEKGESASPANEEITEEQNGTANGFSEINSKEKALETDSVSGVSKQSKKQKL
T1 sequence (Q6ZN18 whole entry partner): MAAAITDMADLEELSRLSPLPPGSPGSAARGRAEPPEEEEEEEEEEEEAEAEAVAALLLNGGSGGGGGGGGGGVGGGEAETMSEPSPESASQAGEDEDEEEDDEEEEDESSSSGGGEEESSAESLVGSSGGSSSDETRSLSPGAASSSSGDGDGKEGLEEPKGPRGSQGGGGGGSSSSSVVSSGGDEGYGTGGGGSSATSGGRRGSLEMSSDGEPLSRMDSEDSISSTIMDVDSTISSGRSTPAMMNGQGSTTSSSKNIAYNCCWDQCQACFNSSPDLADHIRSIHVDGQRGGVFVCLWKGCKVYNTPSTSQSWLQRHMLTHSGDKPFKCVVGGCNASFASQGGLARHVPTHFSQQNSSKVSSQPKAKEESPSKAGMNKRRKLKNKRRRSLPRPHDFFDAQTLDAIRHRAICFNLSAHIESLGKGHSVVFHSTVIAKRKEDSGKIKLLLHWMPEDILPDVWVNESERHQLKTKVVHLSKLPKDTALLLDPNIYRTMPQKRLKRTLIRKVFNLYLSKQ
T1 sequence (Q09028 whole entry partner): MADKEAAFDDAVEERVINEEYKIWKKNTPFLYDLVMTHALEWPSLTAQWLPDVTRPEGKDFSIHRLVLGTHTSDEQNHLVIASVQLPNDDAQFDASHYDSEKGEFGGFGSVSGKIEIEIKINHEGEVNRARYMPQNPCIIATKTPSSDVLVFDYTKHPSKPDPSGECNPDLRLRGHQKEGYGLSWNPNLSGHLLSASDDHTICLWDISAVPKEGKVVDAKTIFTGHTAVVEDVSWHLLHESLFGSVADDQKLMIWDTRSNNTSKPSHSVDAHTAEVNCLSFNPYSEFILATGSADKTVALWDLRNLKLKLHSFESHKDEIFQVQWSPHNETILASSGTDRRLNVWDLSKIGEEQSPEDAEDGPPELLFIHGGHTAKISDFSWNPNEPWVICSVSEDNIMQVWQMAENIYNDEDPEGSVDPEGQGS

Turning to `CC(C)[C@]12O[C@H]1[C@@H]1O[C@]13[C@]1(O[C@H]1C[C@H]1C4=C(CC[C@@]13C)C(=O)OC4)[C@@H]2O` [Triptolide, (3bS,4aS,5aS,6R,6aR,7aS, 7bS,8aS,8bS)-3b,4,4a,6,6a,7a,7b,8b,9,10-Decahydro-6-hydroxy-8b-methyl-6a-(1-methylethyl)trisoxireno[4b,5: 6,7:8a,9]phenanthro[1,2-c]furan-1(3H)-one], in assay [1] (2-day stimulation (FIG. 13d), GSK126 10 μM, EPZ6438 1 μM, Triptolide 20 nM, not observed in DMSO control), the “insulin concentration after incubation in high-glucose media (28 mM glucose, 1 hour)” value is reported as “significant elevations”. Further, the “Release of insulin (glucose stimulated)” value in assay [1] (7 days stimulation (FIG. 13e)) is “maintained”. For the same molecule, the “MAFA mRNA levels” value in assay [2] (2-day point) is recorded as “increased in a statistically significant manner”. Besides, in assay [2] (2 days, EPZ6438 1 μM), the CK19 expression result is given as “statistically significant decreases”; the “NGN3 mRNA levels” value is reported as “significantly elevated”; the “insulin transcripts, mature mRNA (INS)” value is listed as “elevations”; the “insulin transcripts, unprocessed heterogenous nuclear form (INS hnRNA)” value is recorded as “elevations”. Also, in assay [2] (7 days, EPZ6438 1 μM), the “NGN3 mRNA levels” value was “Further increases”; the “insulin transcripts, mature mRNA (INS)” value is listed as “even further increases”; the “insulin transcripts, unprocessed heterogenous nuclear form (INS hnRNA)” value is reported as “even further increases”.
In the case of `COc1cc(C)[nH]c(=O)c1CNC(=O)c1c(C)n([C@H](C)C2CCN(CC(F)(F)F)CC2)c2ccccc12` [CPI-1205, N-[(1,2-Dihydro-4-methoxy-6-methyl-2-oxo-3-pyridinyl)methyl]-2-methyl-1-[(1R)-1-[1-(2,2,2-trifluoroethyl)-4-piperidinyl]ethyl]-1H-indole-3-carboxamide], in assay [3], the “mRNA expression of Insulin, Pdx1 and Ngn3” value (shortened to “mRNA expression of Insulin”) is “stimulated expression of one, two or all of Insulin, Pdx1 and Ngn3”.
A word on the IC50: it is the concentration at which inhibition is half-maximal. In the case of `CCCc1cc(C)[nH]c(=O)c1CNC(=O)c1cc(-c2ccnc(N3CCN(C)CC3)c2)cc2c1cnn2C(C)C` [GSK343, N-[(1,2-Dihydro-6-methyl-2-oxo-4-propyl-3-pyridinyl)methyl]-1-(1-methylethyl)-6-[2-(4-methyl-1-piperazinyl)-4-pyridinyl]-1H-indazole-4-carboxamide], in assay [3], the “mRNA expression of Insulin” value was “stimulated expression of one, two or all of Insulin, Pdx1 and Ngn3”. For the same molecule, at EZH2, the IC50 was 4 nM.
`C[C@H]1[C@H](C)CC[C@]2(C(=O)O)CC[C@]3(C)C(=CC[C@@H]4[C@@]5(C)CC[C@H](O)C(C)(C)[C@@H]5CC[C@]43C)[C@H]12` [Ursolic acid, 3β-Hydroxyurs-12-en-28-oic acid]: the “mRNA expression of Insulin” value in assay [3] is “stimulated expression of one, two or all of Insulin, Pdx1 and Ngn3”. In assay [4], the “Insulin mRNA expression” value is “stimulated expression” and the “Pdx1 mRNA expression” value is “stimulated expression”. In assay [5], the “Insulin mRNA expression” value is recorded as “stimulated expression”, the “Ngn3 mRNA expression” value was “stimulated expression” and the “Pdx1 mRNA expression” value was “stimulated expression”.
Regarding `CCN(c1cc(-c2ccc(CN3CCOCC3)cc2)cc(C(=O)NCc2c(C)cc(C)[nH]c2=O)c1C)C1CCOCC1` [EPZ-6438, N-[(1,2-Dihydro-4,6-dimethyl-2-oxo-3-pyridinyl)methyl]-5-[ethyl(tetrahydro-2H-pyran-4-yl)amino]-4-methyl-4′-(4-morpholinylmethyl)[1,1′-biphenyl]-3-carboxamide], in assay [3], the “mRNA expression of Insulin” value was “stimulated expression of one, two or all of Insulin, Pdx1 and Ngn3”. Also, the “H3K27me3 content of PDX1” value in assay [6] was “reduced”.

(Values after patent US20250235486A1, “Method of Producing Insulin-Producing Cells” (Monash University, priority 2022, published 2025).)
